Results from publication PMC9082524, “Aromatic heterocycle galectin-1 interactions for selective single-digit nM affinity ligands” (RSC Advances, 2018).
Like-named read-outs stand apart in the source and are kept apart here. Blank lines part the entries; values can stand above or below the compound they belong to.

How the values were obtained:
MCF-10A [1] = assay: MTT cytotoxicity assay, MCF-10A; conditions: MCF-10A normal cell line, 72 h, 0.04 μM to 40 μM
JIMT-1 [2] = assay: MTT cytotoxicity assay, JIMT-1; conditions: JIMT-1 tumor cell line, 72 h, 0.04 μM to 40 μM
Human galectin-1 [3] = target: T1, Human galectin-1 (Homo sapiens, UniProt P09382); assay: Competitive fluorescence polarization, galectin-1 (performed as described in ref 13); conditions: for Galectin-3/galectin-1: ratio of Kd values, Table 1 (monogalactosides)
galectin-3 [4] = target: T2, galectin-3 (Homo sapiens, UniProt P17931); assay: Competitive fluorescence polarization, galectin-3 (performed as described in ref 13)
MCF-7 [5] = assay: MTT cytotoxicity assay, MCF-7; conditions: MCF-7 tumor cell line, 72 h, 0.04 μM to 40 μM
galectin-3 [6] = target: T2, galectin-3; assay: Competitive fluorescence polarization, galectin-3 with improved-affinity probe (as described in ref 15); assay type: binding; set-up: made in house; conditions: average ± SEM
Human galectin-1 [7] = target: T1, Human galectin-1; assay: Competitive fluorescence polarization, galectin-1 with high-affinity fluorescent probe 25; assay type: binding; set-up: made in house; conditions: for Kd / Kd Galectin-1: galectin-1 50 nM, probe 25 1 nM, 100 nM BSA, rt, average ± SEM; for Galectin-3/galectin-1: ratio of Kd values, Table 2 (thiodigalactosides), galectin-1 selectivity over galectin-3
MCF-10A [8] = tested on: MCF-10A
JIMT-1 [9] = tested on: JIMT-1
MCF-7 [10] = tested on: MCF-7

T1 sequence (P09382 whole entry): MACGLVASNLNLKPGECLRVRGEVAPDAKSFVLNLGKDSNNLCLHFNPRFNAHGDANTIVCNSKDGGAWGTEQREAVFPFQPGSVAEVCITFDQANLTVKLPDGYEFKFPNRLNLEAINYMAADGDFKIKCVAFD
T2 sequence (P17931 whole entry): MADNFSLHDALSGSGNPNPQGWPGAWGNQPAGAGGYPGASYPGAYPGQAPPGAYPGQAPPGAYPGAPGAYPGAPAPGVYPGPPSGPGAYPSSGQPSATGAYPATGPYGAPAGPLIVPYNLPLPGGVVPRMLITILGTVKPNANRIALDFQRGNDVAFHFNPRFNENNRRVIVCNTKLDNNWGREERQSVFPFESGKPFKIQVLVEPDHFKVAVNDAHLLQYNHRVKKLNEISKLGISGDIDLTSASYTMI

Structure (SMILES): O=C(O)CS[C@@H]1O[C@H](CO)[C@H](O)[C@H](n2cc(-c3cscn3)nn2)[C@H]1O [compound 14, Carboxymethyl 3-deoxy-3-[4-(thiazol-4-yl)-1H-1,2,3-triazol-1-yl]-1-thio-β-D-galactopyranoside]
Cytotoxicity (MCF-10A [1]): non-cytotoxic | Cytotoxicity (JIMT-1 [2]): non-cytotoxic | Kd (Human galectin-1 [3]): 62 ± 2 µM | Galectin-3/galectin-1 (Human galectin-1 [3]): 8.7 | Kd (galectin-3 [4]): 540 ± 30 µM | Cytotoxicity (MCF-7 [5]): non-cytotoxic

Structure (SMILES): O=C(O)CS[C@@H]1O[C@H](CO)[C@H](O)[C@H](n2cc(-c3nccs3)nn2)[C@H]1O [compound 13, Carboxymethyl 3-deoxy-3-[4-(thiazol-2-yl)-1H-1,2,3-triazol-1-yl]-1-thio-β-D-galactopyranoside]
Cytotoxicity (MCF-10A [1]): non-cytotoxic | Cytotoxicity (JIMT-1 [2]): non-cytotoxic | Kd (Human galectin-1 [3]): 43 ± 2 µM | Kd (galectin-3 [4]): 280 ± 7 µM | Cytotoxicity (MCF-7 [5]): non-cytotoxic

Structure (SMILES): O=C(O)CS[C@@H]1O[C@H](CO)[C@H](O)[C@H](n2cc(-c3ccsc3)nn2)[C@H]1O [compound 12, Carboxymethyl 3-deoxy-3-[4-(thien-3-yl)-1H-1,2,3-triazol-1-yl]-1-thio-β-D-galactopyranoside]
Cytotoxicity (MCF-10A [1]): non-cytotoxic | Cytotoxicity (JIMT-1 [2]): non-cytotoxic | Kd (Human galectin-1 [3]): 58 ± 4 µM | Galectin-3/galectin-1 (Human galectin-1 [3]): 3.4 | Kd (galectin-3 [4]): 200 ± 7 µM | Cytotoxicity (MCF-7 [5]): non-cytotoxic

Structure (SMILES): OC[C@H]1O[C@@H](S[C@@H]2O[C@H](CO)[C@H](O)[C@H](n3cc(-c4nccs4)nn3)[C@H]2O)[C@H](O)[C@@H](n2cc(-c3nccs3)nn2)[C@H]1O [compound 19, 1,1′-Sulfanediyl-bis-{3-deoxy-3-[4-(thiazol-2-yl)-1H-1,2,3-triazol-1-yl]-β-D-galactopyranoside}]
Cytotoxicity (MCF-10A [1]): non-cytotoxic | Cytotoxicity (JIMT-1 [2]): non-cytotoxic | Cytotoxicity (MCF-7 [5]): non-cytotoxic | Kd (Human galectin-1 [7]): 0.0084 ± 0.001 µM | Kd Galectin-1 (Human galectin-1 [7]): single-digit

Structure (SMILES): Cc1ccc(S[C@@H]2O[C@H](CO)[C@H](O)[C@H](n3cc(-c4ccsc4)nn3)[C@H]2O)cc1 [compound 7, p-Methylphenyl 3-deoxy-3-[4-(thien-3-yl)-1H-1,2,3-triazol-1-yl]-1-thio-β-D-galactopyranoside]
Cytotoxicity (MCF-10A [8]): non-cytotoxic | Cytotoxicity (JIMT-1 [9]): non-cytotoxic | Kd (Human galectin-1 [3]): 47 ± 2 µM | Cytotoxicity (MCF-7 [10]): non-cytotoxic

Structure (SMILES): Cc1ccc(S[C@@H]2O[C@H](CO)[C@H](O)[C@H](O)[C@H]2O)cc1 [compound 16, reference compound]
Galectin-3/galectin-1 (Human galectin-1 [3]): 0.2

Structure (SMILES): OC[C@H]1O[C@@H](S[C@@H]2O[C@H](CO)[C@H](O)[C@H](n3cc(-c4ccsc4)nn3)[C@H]2O)[C@H](O)[C@@H](n2cc(-c3ccsc3)nn2)[C@H]1O [compound 1]
Cytotoxicity (MCF-10A [1]): non-cytotoxic | Cytotoxicity (JIMT-1 [2]): non-cytotoxic | Cytotoxicity (MCF-7 [5]): non-cytotoxic | Kd (Human galectin-1 [7]): 0.0061 ± 0.001 µM | Kd Galectin-1 (Human galectin-1 [7]): single-digit

Structure (SMILES): O=C(O)CS[C@@H]1O[C@H](CO)[C@H](O)[C@H](O)[C@H]1O [compound 17, reference compound]
Kd (Human galectin-1 [3]): 430 ± 40 µM | Galectin-3/galectin-1 (Human galectin-1 [3]): 4.2 | Kd (galectin-3 [4]): 1800 ± 100 µM

Structure (SMILES): Cc1ccc(S[C@@H]2O[C@H](CO)[C@H](O)[C@H](n3cc(-c4cccs4)nn3)[C@H]2O)cc1 [compound 6, p-Methylphenyl 3-deoxy-3-[4-(thien-2-yl)-1H-1,2,3-triazol-1-yl]-1-thio-β-D-galactopyranoside]
Cytotoxicity (MCF-10A [8]): non-cytotoxic | Cytotoxicity (JIMT-1 [9]): non-cytotoxic | Kd (Human galectin-1 [3]): 61 ± 4 µM | Cytotoxicity (MCF-7 [10]): non-cytotoxic

The next lines start with the values.

Kd (Human galectin-1 [3]): 47 ± 3 µM | Galectin-3/galectin-1 (Human galectin-1 [3]): 4.7
Structure (SMILES): Cc1ccc(S[C@@H]2O[C@H](CO)[C@H](O)[C@H](n3cc(-c4ncc[nH]4)nn3)[C@H]2O)cc1 [compound 8, p-Methylphenyl 3-deoxy-3-[4-(1H-imidazol-2-yl)-1H-1,2,3-triazol-1-yl]-1-thio-β-D-galactopyranoside]

Kd (Human galectin-1 [3]): 180 ± 9 µM | Galectin-3/galectin-1 (Human galectin-1 [3]): 2.4 | Kd (galectin-3 [4]): 430 ± 20 µM
Structure (SMILES): O=C(O)CS[C@@H]1O[C@H](CO)[C@H](O)[C@H](n2cc(-c3cncs3)nn2)[C@H]1O [compound 15, Carboxymethyl 3-deoxy-3-[4-(thiazol-5-yl)-1H-1,2,3-triazol-1-yl]-1-thio-β-D-galactopyranoside]

Kd (galectin-3 [6]): 0.0018 ± 0.0002 µM | Kd (Human galectin-1 [7]): 0.013 ± 0.001 µM | Galectin-3/galectin-1 (Human galectin-1 [7]): 0.14
Structure (SMILES): OC[C@H]1O[C@@H](S[C@@H]2O[C@H](CO)[C@H](O)[C@H](n3cc(-c4nccs4)nn3)[C@H]2O)[C@H](O)[C@@H](n2cc(-c3ccc(F)c(F)c3)nn2)[C@H]1O [compound 23, 3,3′-Dideoxy-3′-[4-(3,4-difluorophenyl)-1H-1,2,3-triazol-1-yl]-3-[4-(thiazol-2-yl)-1H-1,2,3-triazol-1-yl]-1,1′-sulfanediyl-di-β-D-galactopyranoside]

Kd (Human galectin-1 [3]): 120 ± 7 µM | Galectin-3/galectin-1 (Human galectin-1 [3]): 2.1
Structure (SMILES): Cc1ccc(S[C@@H]2O[C@H](CO)[C@H](O)[C@H](n3cc(-c4ccoc4)nn3)[C@H]2O)cc1 [compound 5, p-Methylphenyl 3-deoxy-3-[4-(furan-3-yl)-1H-1,2,3-triazol-1-yl]-1-thio-β-d-galactopyranoside]

Kd (galectin-3 [6]): 0.061 ± 0.003 µM | Increased galectin-1 selectivity compared to corresponding monogalactoside (Human galectin-1 [7]): 2 fold | Kd (Human galectin-1 [7]): 0.012 ± 0.001 µM | Galectin-3/galectin-1 (Human galectin-1 [7]): 5.1
Structure (SMILES): OC[C@H]1O[C@@H](S[C@@H]2O[C@H](CO)[C@H](O)[C@H](n3cc(-c4nccs4)nn3)[C@H]2O)[C@H](O)[C@@H](n2cc(-c3ccsc3)nn2)[C@H]1O [compound 22, 3,3′-Dideoxy-3-[4-(thiazol-2-yl)-1H-1,2,3-triazol-1-yl]-3′-[4-(thien-3-yl)-1H-1,2,3-triazol-1-yl]-1,1′-sulfanediyl-di-β-D-galactopyranoside]

Kd (Human galectin-1 [3]): 370 ± 30 µM | Galectin-3/galectin-1 (Human galectin-1 [3]): 2.6
Structure (SMILES): Cc1ccc(S[C@@H]2O[C@H](CO)[C@H](O)[C@H](n3cc(C4CCCC4)nn3)[C@H]2O)cc1 [compound 4, p-Methylphenyl 3-deoxy-3-(4-cyclopentyl-1H-1,2,3-triazol-1-yl)-1-thio-β-D-galactopyranoside]

Kd (galectin-3 [6]): 0.18 ± 0.01 µM | Increased galectin-1 selectivity compared to corresponding monogalactoside (Human galectin-1 [7]): 2 fold | Lower affinity for galectin-1 than thiophene 1 (Human galectin-1 [7]): 4 fold | Kd (Human galectin-1 [7]): 0.025 ± 0.002 µM | Galectin-3/galectin-1 (Human galectin-1 [7]): 7.2
Structure (SMILES): OC[C@H]1O[C@@H](S[C@@H]2O[C@H](CO)[C@H](O)[C@H](n3cc(-c4ncc[nH]4)nn3)[C@H]2O)[C@H](O)[C@@H](n2cc(-c3ncc[nH]3)nn2)[C@H]1O [compound 20, 1,1′-Sulfanediyl-bis-{3-deoxy-3-[4-(1H-imidazol-2-yl)-1H-1,2,3-triazol-1-yl]-β-D-galactopyranoside}]

Kd (Human galectin-1 [3]): 140 ± 7 µM | Galectin-3/galectin-1 (Human galectin-1 [3]): 2.4
Structure (SMILES): Cc1ccc(S[C@@H]2O[C@H](CO)[C@H](O)[C@H](n3cc(-c4c[nH]cn4)nn3)[C@H]2O)cc1 [compound 9, p-Methylphenyl 3-deoxy-3-[4-(1H-imidazol-4-yl)-1H-1,2,3-triazol-1-yl]-1-thio-β-D-galactopyranoside]
